Data on 1 molecule can be found in patent US20110028715A1, “NOVEL ADENINE COMPOUND” (priority 2007, published 2011).

In experiment [1] the test system is IFN-α. The experiment is described as follows: IFN-α production inducing activity in mice (plasma IFN-α by L929/2-5AS-Luc bioassay). The format is in vivo, B6C3F1 mice. The settings on record: 3 hours after 1 mg/kg intravenously via tail vein, mean ± standard deviation (n = 3). On the procedure:
A test compound was administered to B6C3F1 mice (Charles River Japan, Inc.) via tail vein at the dose of 1 mg/kg intravenously. After 3 hours, total blood was collected into a sample tube containing heparin. Plasma was prepared from total blood after centrifugation (3,000 rpm, 10 min, at room temperature) and stored at −20° C.
Murine fibroblasts (L929/2-5AS-Luc), which constitutively expressed luciferase gene in which the promoter region for 2′-5′-oligoadenylate synthase was cloned, was seeded into 96-well plate at 4×10^4 cells/well, and cultured for overnight with diluted plasma or mouse IFN-α. After Luclite (Perkin Elmer) was added to the plate, the luciferase activity was measured with TopCount (Perkin Elmer).
The concentration of IFN-α in plasma was calculated by linear regression of logarithmic transformed concentration of mouse IFN-α and the luciferase activity.

The subject of experiment [2] is OV-HM ovarian carcinoma. Put plainly: Antitumor activity: lung metastasis in OV-HM ovarian carcinoma-bearing mouse. The format is in vivo, B6C3F1 mouse. The settings on record: Day 35. The procedure:
OV-HM ovarian carcinoma-bearing B6C3F1 mouse was prepared by intradermally inoculating 1×10^6 viable OV-HM cells in back skin. Tumor was surgically removed ten days after the tumor incubation under isoflurane anesthesia. On Day 11, Day 14, Day 17, Day 20, Day 24, Day 28, and Day 32, a test compound was administered via tail vein at the dose of 1 mg/kg. On Day 35, mouse was euthanized, and lung was collected from the mouse. Metastasized tumor nodules in lung was counted, and the frequency of the metastasized mice was calculated in each group.

On to `CCOc1nc(N)c2[nH]c(=O)n(Cc3ccc(CN(C)C)cc3)c2n1` [Example 63, 6-Amino-9-(4-dimethylaminomethylbenzyl)-2-ethoxy-7,9-dihydropurin-8-one], for which the “Mouse IFN-α” value in experiment [1] is reported as 25.4 ± 13.9 IU/mL. The Frequency of metastasis in experiment [2] (metastasized mice per group, lung, 1 mg/kg via tail vein on Days 11, 14, 17, 20, 24, 28, 32) was 0/6. Moreover, in experiment [2] (metastasized tumor nodules in lung, 1 mg/kg via tail vein, **p < 0.01 vs vehicle group (Wilcoxon)), the Number of tumor is listed as 0.0**.
